In BindingDB's records for doi:10.1021/jm960495w (Hokkaido University, 1997):

Experiment: Percentage inhibition of N-methyl-D-aspartic acid (NMDA) receptor produced by oocytes

IC50: 51 µM
SMILES: CCC(N)[C@@H]1C[C@@]1(C(=O)N(CC)CC)c1ccccc1 (stereo partly drawn) [(1S,2R)-2-(1-Amino-propyl)-1-phenyl-cyclopropanecarboxylic acid diethylamide]
